The values that follow come from US5625044A, “Methods for the preparation of pure homologous series of mono to tetra fatty acyl esters of sugars and pharmaceutical formulations useful in the treatment of cancer” (Goudreau Gage Dubec & Martineau, priority 1994, dated 1997).

Entries after “also recorded” stand apart in the source; their conditions may differ.

Data set [1] can be described thus: Tolerance and immunosuppression of angiostatic steroids. Here is the method:
The doses were: 150 mg/kg of body weight/day for the first two days, 125 mg/kg of body weight/day for the next two days, 100 mg/kg of body weight/day for the next two days, and then a maintenance dose of 75 mg/kg of body weight/day was used for the remaining duration of the treatment, for a total of 20-25 days. […] Therefore, the dosage rate of steroids might also be adjusted, according to the patients' response, which is left to the clinician;

For data set [2] the following is noted: in vivo; cited from earlier work.
In another data set the test system is C3HBA. Kind of data set: Antitumor activity of maltose palmitates against C3HBA fragment implanted s.c. in C3H/HeN females. Type of data set: in vivo, C3H/HeN mice. Particulars: ip. 3 times weekly, 10 μg (individual palmitates). The source says: The scientific and patent literature on tri-fatty acyl disaccharides is non existent. This compound has not been obtained as a single entity. The compound forms complexes and rarely appeared as a pure band in our investigations. However, when the mixture is subjected to HPLC as described in I, we obtain sufficient quantities of di, tri and tetra palmitates. This allowed us to test each of these components individually and in combinations. Briefly, the following results were obtained using C3HBA fragment implanted s.c. in C3H/HeN females.

In the next data set the test system is Naik As cells. Description: In vitro growth inhibition of angiosarcoma cell line Naik-AS. Type of data set: cell-based. The source says:
The in vitro growth of an angiosarcoma cell line (Naik-AS) developed by us was studied in the presence and absence of maltose tri- and tetrapalmitates.

Data set [3] can be described thus: Degradation of labelled maltose palmitates in tissues (14C/3H ratio of ethanolic extract). The following applies: mouse, in vivo. Also on record: species or system mice. Here is the method:
The ^3 H-palmitoyl chloride and the ^14 C-maltose (as prepared earlier) were mixed in a total volume of 500 μl of dimethyl formamide (DMF). To the mixture was added 100 μl pyridine and the contents were heated for 14 h at 60° C. in a nitrogen atmosphere. The product was then evaporated under reduced pressure at 60° C. to remove the solvents. It was dissolved in 400 μl of absolute ethanol. Pyridine hydrochloride was removed by adding the dissolved crude reaction product to 1 ml ice cold water in an Eppendorf tube. The resulting suspension was centrifuged at 4° C. for 10 min and the supernatant was discarded. The product was dried for 48 hours in a vacuum desiccator and then was extracted with three 10 μl portions of methanol at room temperature. The methanol extract was subjected to reverse phase HPLC using a methanol eluent and detection at 214 nm at a flow rate of 0.5 ml/min and a 3.9 mn×15 cm Waters Resolve C18 5μ column. Two components eluting at 19.1 and 24.1 min which corresponded to the two isomers of maltose tetrapalmitate were collected. […] The tissue extracts were analyzed for ^3 H and ^14 C for non metabolized MTP and its degradation products by scintillation counting. […]
The ratio of degradation calculated on the basis of slope of ^14 C/^3 H ratio between 24 h and 48 h, in ethanolic extract indicated the following order of degradation, with liver taken as 100: […]

Data set [4] concerns cultured endothelial cells. Type of data set: in vitro ADME.
The subject of another data set is tumor cells. Description: Antitumor activity of individual maltose palmitates (summary statements). Type of data set: in vivo. The following applies: comparison of maltose palmitates.
[5] abbreviates: rodents, 150 down to 75 mg/kg of body weight/day, 20-25 days.

As to `C[C@]12CCC(=O)C=C1CC[C@@H]1[C@@H]2[C@@H](O)C[C@@]2(C)[C@H]1CC[C@]2(O)C(=O)CO` [hydrocortisone], the “tolerance at high doses” value in data set [1] (setting [5]) is given as “rodents tolerate them”. Also, the immunosuppression entry in data set [2] is “at high doses, it is immunosuppressive; also recorded: highly immunosuppressive”.
For the molecule `CC(=O)[C@@]1(O)CC[C@H]2[C@@H]3CCC4=CC(=O)CC[C@]4(C)[C@H]3CC[C@@]21C` [17-β-OH progesterone], the “tolerance at high doses” value in data set [1] (setting [5]) was “rodents tolerate them”.
Consider `C[C@]12CCC(=O)C=C1CC[C@@H]1[C@@H]2CC[C@@]2(C)[C@H]1CC[C@]2(O)C(=O)CO` [cortexolone], for which the “tolerance at high doses” value in data set [1] (in vivo) is recorded as “rodents tolerate them”.
`C[C@]12CC[C@@H](O)C[C@H]1CC[C@@H]1[C@@H]2CC[C@@]2(C)[C@H]1CC[C@]2(O)C(=O)CO` [tetra hydro S]: the “tolerance at high doses” value in data set [1] (setting [5]) is on record as “rodents tolerate them”.
For the molecule `CCCCCCCCCCCCCCCC(=O)OC[C@H]1O[C@H](O[C@H]2[C@H](O)[C@@H](O)C(OC(=O)CCCCCCCCCCCCCCC)O[C@@H]2COC(=O)CCCCCCCCCCCCCCC)[C@H](O)[C@@H](O)[C@@H]1O` (stereo partly shown) [maltose tripalmitate, maltose 1, 6, 6' tri palmitate], the “Day of tumor appearance after implantation” value in the data set on C3HBA was in the range of 14 to 16 days. Besides, the “% Inhibition of growth of Naik As cells in culture” value in the data set with Naik As cells (5 μg/ml, 30 hours) was 30%; in the data set on Naik As cells (5 μg/ml, 60 hours) it was 17%; in the data set on Naik As cells (5 μg/ml, 105 hours), 10%; with Naik As cells (.625 μg/ml, 30 hours), 25%; in the data set on Naik As cells (.625 μg/ml, 60 hours), 11%; in the data set on Naik As cells (.625 μg/ml, 105 hours), 4%. Besides, in the data set on Naik As cells (time course in words), the “in vitro growth of angiosarcoma cell line (Naik-AS), in words” value is listed as “inhibited growth on the first 30 hours which response declined as it got degraded”. Moreover, in data set [3], the “retention time in tissues / degradation, in words” value is on record as “followed by maltose tripalmitate”. The “degradation by cultured endothelial cells” value in data set [4] was “Degradation also occurred”. In addition, the “antitumor activity, in words” value in the data set with tumor cells was “most active component”.
